Measurements reported in paper PMC3458735, “Design of a novel tryptophan-rich membrane-active antimicrobial peptide from the membrane-proximal region of the HIV glycoprotein, gp41” (Beilstein Journal of Organic Chemistry, 2012).
Where no end group is shown, it is not given here.

Key:
[1] = test system: E. coli; conditions: for MBC E. coli: minimum bactericidal concentration; for MIC E. coli: minimum inhibitory concentration
Experimental: (§1) The antimicrobial activity for gp41w and its derivatives was determined against Gram-negative E. coli and Gram-positive S. aureus strains (Table 1).
(§2) Minimum inhibitory concentrations (MIC) and minimum bactericidal concentrations (MBC) were determined for E. coli and S. aureus as described previously. Hemolytic activity was also determined by using red blood cells from healthy volunteers, as described previously.

[2] = test system: S. aureus; conditions: for MBC S. aureus: minimum bactericidal concentration; for MIC S. aureus: minimum inhibitory concentration
Experimental: as §1, §2

[3] = test system: red blood cells from healthy volunteers; assay: Hemolytic activity on red blood cells; assay type: cell-based, human; conditions: for hemolytic concentration: peptide concentration at which red blood cells were lysed
Experimental: as §2

[4] = Acrylamide quenching of Trp fluorescence (Stern-Volmer constant); assay type: physicochemical; parameters: unit not given here; conditions: acrylamide titration (aliquots of 4 M acrylamide), 25 °C, three separate trials
Experimental: Acrylamide quenching experiments were performed for the four peptides to examine the accessibility of the Trp fluorophores in the various membrane environments. If a Trp side chain inserts into the hydrophobic core of the bilayer, it becomes less accessible to the effects of the soluble acrylamide quencher. The quenching of Trp fluorescence is directly related to the concentration of quencher, so a titration with the neutral acrylamide allows for the calculation of the Stern–Volmer constant (Ksv), which quantitatively measures the accessibility of the Trp residues in various lipid environments.
Intrinsic tryptophan fluorescence of the peptides was measured on a Cary Eclipse Fluorimeter (Agilent Technologies, Victoria, Australia) equipped with a temperature control unit set at 25 °C. Emission spectra were recorded between 300 and 400 nm with an excitation wavelength of 295 nm. Excitation and emission slits were kept at 5 and 10 nm, respectively, for all the peptides except for gp41w-FKA, which has a single Trp residue, and for which both slit widths were maintained at 10 nm. The concentration of SDS and DPC in the fluorescence samples was 25 mM, while the lipid concentration in the LUV samples was 30 μM. Acrylamide titrations were performed to determine Ksv by adding five aliquots of a 4 M acrylamide solution to the sample and recording an emission spectra using the parameters described above. Ksv was calculated by using the formula F0/F = […], Where F0 is the initial fluorescence and F is the fluorescence intensity after the addition of soluble quencher (Q).

[5] = Calcein leakage from LUVs; conditions: 37 °C, triplicate; for calcein leakage from zwitterionic ePC:ePE LUVs: highest peptide:lipid ratio tested; for calcein leakage from zwitterionic ePC:ePE LUVs (in words): melittin as positive control
Experimental: All four peptides were tested for their ability to induce the release of the self-quenching fluorescent dye, calcein, from calcein-encapsulated LUVs.
Melittin (black), a known lytic peptide from honey-bee venom was used as a positive control. All experiments were carried out in triplicate at 37 °C.
Calcein leakage was performed according to established protocols. Melittin, the principal component of bee venom and a known lytic peptide, was used as a positive control. Calcein leakage was measured for LUVs made from lipid mixtures of ePC:ePG, ePE:ePG or ePC:ePE.

[6] = test system: E. coli and S. aureus; assay: Antimicrobial activity, covering both strains; assay type: cell-based; conditions: for antimicrobial activity (in words): at the concentrations tested
Experimental: as §1, §2

[7] = earlier attempts at an NMR structure; cited from earlier work
Excerpt: The lack of antimicrobial activity may be related to the fact that the gp41w peptide appears to oligomerize in solution. […] In terms of the antimicrobial activity, gp41w oligomers may be too large to pass through the peptidoglycan layer surrounding Gram-positive bacteria. Additionally, they would have to disassociate into monomers before the ...

[8] = 4:4:1 CDCl3:methanol-d3:H2O, 1–2 mg in 500 μL; aggregates persisted at higher temperatures
Experimental: Consequently, we chose to use a cosolvent mixture consisting of four parts deuterated chloroform, four parts deuterated methanol and one part water [19–20].
NMR samples were prepared by dissolving 1–2 mg of lyophilized peptide powder in 500 μL of the miscible cosolvent solution, and then the samples were flame sealed in an NMR tube to avoid evaporation of the organic solvents. Two-dimensional NOESY, TOCSY and COSY spectra were collected at 298 K on a Bruker Avance 700 MHz spectrometer. Mixing times in the NOESY and TOCSY experiments were 100 ms and 120 ms, respectively. Spectra were acquired with 4096 × 600 data points in the F1 and F2 dimensions at a spectral width of 8992.806 Hz. Water suppression was achieved by using excitation sculpting [44].

[9] = Tryptophan emission fluorescence in aqueous buffer; assay type: physicochemical; conditions: 25 °C, excitation 295 nm, a blue-shifted maximum is read as oligomerization in solution
Experimental: Tryptophan emission fluorescence of all the gp41w derivatives was performed to examine the microenvironment surrounding the Trp side chains. It is evident that the behaviour of the gp41w peptide is very different from the other peptides. The wavelength of the maximum emission for gp41w occurs at 342 nm, while the other three peptides have maximum emission wavelengths at ~356 nm. The value of 356 nm is normal for an exposed Trp side chain in aqueous solution. […] A shift towards lower wavelengths is usually interpreted as the Trp residue residing in a more hydrophobic environment, which may be due to the gp41w peptides oligomerizing in solution.
Intrinsic tryptophan fluorescence of the peptides was measured on a Cary Eclipse Fluorimeter (Agilent Technologies, Victoria, Australia) equipped with a temperature control unit set at 25 °C. Emission spectra were recorded between 300 and 400 nm with an excitation wavelength of 295 nm. […] The concentration of SDS and DPC in the fluorescence samples was 25 mM, while the lipid concentration in the LUV samples was 30 μM. […] Ksv was calculated by using the formula F0/F = […], Where F0 is the initial fluorescence and F is the fluorescence intensity after the addition of soluble quencher (Q).

[10] = most potent peptide of Lee et al.; cited from earlier work
Excerpt: Other de novo strategies for generating AMPs have been reported in the literature. For instance, Lee et al. recently published a study wherein they synthesized short peptides (5-11 residues) composed of only three amino acids: Lys, Leu and Trp. Their results support the notion that the antimicrobial activity of a peptide is related to peptide amphipathicity and helicity as well as to the location of the Trp residues.

Substance: KFAKKFKWFAKAAFKFFKK-NH2 [gp41w-FKA]
- MBC E. coli [1]: 40 to 50 µg/mL
- MIC E. coli [1]: 10 to 30 µg/mL
- MBC S. aureus [2]: 20 to 30 µg/mL
- MIC S. aureus [2]: <10 µg/mL
- hemolytic concentration [3]: 195 µg/mL
- Ksv (Stern-Volmer constant) in buffer [4]: 17.9
- calcein leakage from zwitterionic ePC:ePE LUVs [5]: ~ 70%
- antimicrobial activity (in words) ([6]; E. coli and S. aureus): significant antimicrobial activity
- concentrations of bacteriostatic and bactericidal effects ([6]; range over MIC and MBC of both strains): 10 to 50 µg/mL

Substance: KWAKKWKWFAKAAWKWYKK-NH2 [gp41w-KA]
- MBC E. coli [1]: >100 µg/mL
- MIC E. coli [1]: >100 µg/mL
- MBC S. aureus [2]: >100 µg/mL
- MIC S. aureus [2]: >100 µg/mL
- hemolytic concentration [3]: 42 µg/mL
- Ksv (Stern-Volmer constant) in buffer [4]: 16.4
- calcein leakage from zwitterionic ePC:ePE LUVs [5]: ~ 70%
- antimicrobial activity (in words) ([6]; E. coli and S. aureus): inactive

Substance: KWARLWRWFRITRWLWYIK-NH2 [gp41w-4R]
- MBC E. coli [1]: >100 µg/mL
- MIC E. coli [1]: >100 µg/mL
- MBC S. aureus [2]: >100 µg/mL
- MIC S. aureus [2]: >100 µg/mL
- Hemolysis EC50 ([3]; effective concentration for 50% hemolysis, red blood cells from healthy volunteers): 7 to 14 µg/mL
- hemolytic concentration [3]: 7 µg/mL
- Ksv (Stern-Volmer constant) in buffer [4]: 27.8
- calcein leakage from zwitterionic ePC:ePE LUVs (in words) [5]: significant leakage
- antimicrobial activity (in words) ([6]; E. coli and S. aureus): inactive

Substance: KWASLWNWFNITNWLWYIK-NH2 [gp41w]
- MBC E. coli [1]: >100 µg/mL
- MIC E. coli [1]: >100 µg/mL
- MBC S. aureus [2]: >100 µg/mL
- MIC S. aureus [2]: >100 µg/mL
- behaviour in aqueous solution or 40% TFE (in words) [7]: peptide aggregation or poor solubility
- concentration below which hemolysis was not observed [3]: ≥ 500 µg/mL
- hemolysis (in words) ([3]; peptide added to red blood cells): minimal hemolysis
- Ksv (Stern-Volmer constant) in buffer [4]: 10.3
- calcein leakage from zwitterionic ePC:ePE LUVs (in words) [5]: caused leakage, but not to the same extent
- concentration below which no antimicrobial activity was observed ([6]; E. coli and S. aureus): ≥ 100 µg/mL
- antimicrobial activity (in words) ([6]; E. coli and S. aureus): inactive
- solubility in the cosolvent mixture (in words) [8]: did not readily dissolve
- wavelength of the maximum Trp emission in aqueous buffer [9]: 342 nm

Substance: LKWLLKWLL-NH2
- hemolytic activity (in words) [10]: significant hemolytic activity
